PubChem BioAssay (NCI)
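Results reflect a 48-hour exposure of cells in 96-well plates to compound at five concentrations. Definition used: TGI = concentration required for complete inhibition of growth.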

Experiments:
Test in all cases: growth of human tumour cells (NCI), 48 h
A498 renal = test system: A498 renal
M14 melanoma = test system: M14 melanoma
HOP-92 NSCLC = test system: HOP-92 NSCLC
ACHN renal = test system: ACHN renal
MOLT-4 leukemia = test system: MOLT-4 leukemia
HCC-2998 colon = test system: HCC-2998 colon
DU-145 prostate = test system: DU-145 prostate
NCI-H460 lung = test system: NCI-H460 lung
NCI/ADR-RES ovarian = test system: NCI/ADR-RES ovarian
OVCAR-4 ovarian = test system: OVCAR-4 ovarian
SK-MEL-28 melanoma = test system: SK-MEL-28 melanoma
SF-268 CNS = test system: SF-268 CNS
LXFL 529 NSCLC = test system: LXFL 529 NSCLC
U251 CNS = test system: U251 CNS
T-47D breast = test system: T-47D breast
UO-31 renal = test system: UO-31 renal
HCT-116 colon = test system: HCT-116 colon
MCF7 breast = test system: MCF7 breast
SN12C renal = test system: SN12C renal
TK-10 renal = test system: TK-10 renal
OVCAR-8 ovarian = test system: OVCAR-8 ovarian
RPMI-8226 leukemia = test system: RPMI-8226 leukemia
COLO 205 colon = test system: COLO 205 colon
SNB-75 CNS = test system: SNB-75 CNS
UACC-62 melanoma = test system: UACC-62 melanoma
KM12 colon = test system: KM12 colon
SK-MEL-2 melanoma = test system: SK-MEL-2 melanoma
MDA-MB-435 = test system: MDA-MB-435
NCI-H226 lung = test system: NCI-H226 lung
PC-3 prostate = test system: PC-3 prostate
HCT-15 colon = test system: HCT-15 colon
SF-539 CNS = test system: SF-539 CNS
A549 NSCLC = test system: A549 NSCLC
KM20L2 colon = test system: KM20L2 colon
RXF 393 renal = test system: RXF 393 renal
SNB-78 CNS = test system: SNB-78 CNS
OVCAR-5 ovarian = test system: OVCAR-5 ovarian
MALME-3M melanoma = test system: MALME-3M melanoma
CAKI-1 renal = test system: CAKI-1 renal
HOP-62 NSCLC = test system: HOP-62 NSCLC
HL-60(TB) leukemia = test system: HL-60(TB) leukemia
SK-OV-3 ovarian = test system: SK-OV-3 ovarian
HT29 colon = test system: HT29 colon
UACC-257 melanoma = test system: UACC-257 melanoma
NCI-H23 lung = test system: NCI-H23 lung
EKVX NSCLC = test system: EKVX NSCLC
NCI-H522 lung = test system: NCI-H522 lung
DMS 114 small cell lung = test system: DMS 114 small cell lung
IGROV1 ovarian = test system: IGROV1 ovarian
MDA-N = test system: MDA-N
M19-MEL melanoma = test system: M19-MEL melanoma
CCRF-CEM leukemia = test system: CCRF-CEM leukemia
DMS 273 small cell lung = test system: DMS 273 small cell lung
SR leukemia = test system: SR leukemia
K-562 leukemia = test system: K-562 leukemia
SK-MEL-5 melanoma = test system: SK-MEL-5 melanoma
SF-295 CNS = test system: SF-295 CNS
SW-620 colon = test system: SW-620 colon
LOX IMVI melanoma = test system: LOX IMVI melanoma
MDA-MB-231 breast = test system: MDA-MB-231 breast
786-0 renal = test system: 786-0 renal
OVCAR-3 ovarian = test system: OVCAR-3 ovarian
DLD-1 colon = test system: DLD-1 colon
SNB-19 CNS = test system: SNB-19 CNS

Measured: TGI

Nc1ncnc2c1ncn2C1CC(O)C(CO)O1 (centres undefined)
> 100 µM: all assays above
